Results as given in PMC9157009, “Protein proximity networks and functional evaluation of the casein kinase 1 gamma family reveal unique roles for CK1γ3 in WNT signaling” (The Journal of Biological Chemistry, 2022).
pIC50: −log10 of the molar value. Several values for one entry are separate records, joined by “and”; a condition that tells them apart may be missing. Identical values can stand only once.

Key:
[1] = target: T1, DYRK1B (Homo sapiens, UniProt Q9Y463); experiment: scanMAX binding assay, DYRK1B; settings: Percent of Control; legend and method: 1 μM; read-out: DYRK1B PoC @ 1 µM
T1 construct: purchased Eurofins DiscoverX Corporation
T1 sequence (Q9Y463 whole entry): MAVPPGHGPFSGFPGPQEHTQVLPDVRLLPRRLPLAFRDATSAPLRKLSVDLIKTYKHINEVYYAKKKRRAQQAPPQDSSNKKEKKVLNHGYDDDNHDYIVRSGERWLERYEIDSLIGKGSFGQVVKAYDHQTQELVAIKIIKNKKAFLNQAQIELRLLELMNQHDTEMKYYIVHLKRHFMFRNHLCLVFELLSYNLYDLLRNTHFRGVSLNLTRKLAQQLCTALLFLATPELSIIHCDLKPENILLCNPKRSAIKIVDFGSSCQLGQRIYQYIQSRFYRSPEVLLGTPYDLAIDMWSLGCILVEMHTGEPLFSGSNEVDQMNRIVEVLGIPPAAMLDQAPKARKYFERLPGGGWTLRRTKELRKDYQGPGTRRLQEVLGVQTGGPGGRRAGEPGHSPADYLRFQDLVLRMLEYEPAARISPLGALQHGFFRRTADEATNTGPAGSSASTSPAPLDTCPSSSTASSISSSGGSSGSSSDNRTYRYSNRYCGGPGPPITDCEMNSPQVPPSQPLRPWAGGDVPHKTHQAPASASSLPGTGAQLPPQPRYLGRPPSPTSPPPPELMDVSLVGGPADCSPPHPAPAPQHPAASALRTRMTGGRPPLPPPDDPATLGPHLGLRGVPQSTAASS
Text: (§1) As described previously, this commercial assay platform screens against 403 WT human kinases in binding assays and provides PoC values ([73]).

[2] = target: T2, CK1γ1 (Homo sapiens, UniProt Q9HCP0); experiment: Eurofins kinase enzymatic radiometric assay, CK1γ1; type: biochemical; settings: Km = ATP, 9-pt curve in duplicate
T2 construct: purchased Eurofins
T2 sequence (Q9HCP0 whole entry): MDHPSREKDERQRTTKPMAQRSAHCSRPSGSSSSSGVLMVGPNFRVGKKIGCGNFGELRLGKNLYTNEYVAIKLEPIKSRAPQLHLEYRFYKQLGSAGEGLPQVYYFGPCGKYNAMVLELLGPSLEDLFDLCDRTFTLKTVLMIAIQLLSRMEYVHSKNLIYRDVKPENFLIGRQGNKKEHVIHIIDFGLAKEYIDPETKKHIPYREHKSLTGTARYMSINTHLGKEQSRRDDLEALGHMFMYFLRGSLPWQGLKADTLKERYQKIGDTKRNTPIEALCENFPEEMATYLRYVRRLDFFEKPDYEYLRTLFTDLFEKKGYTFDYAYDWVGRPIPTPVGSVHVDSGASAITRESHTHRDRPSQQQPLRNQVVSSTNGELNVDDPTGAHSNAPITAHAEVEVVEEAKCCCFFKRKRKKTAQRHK
Text: (§2) Details related to the substrate used, protein constructs, controls, and assay protocol for each kinase assay are included on the Eurofins website: https://www.eurofinsdiscoveryservices.com/.

[3] = target: T3, CK1γ3 (Homo sapiens, UniProt Q9Y6M4); experiment: scanMAX binding assay, CK1γ3; settings: Percent of Control; legend and method: 1 μM; read-out: CK1γ3 PoC @ 1 µM
T3 construct: purchased Eurofins
T3 sequence (Q9Y6M4 whole entry): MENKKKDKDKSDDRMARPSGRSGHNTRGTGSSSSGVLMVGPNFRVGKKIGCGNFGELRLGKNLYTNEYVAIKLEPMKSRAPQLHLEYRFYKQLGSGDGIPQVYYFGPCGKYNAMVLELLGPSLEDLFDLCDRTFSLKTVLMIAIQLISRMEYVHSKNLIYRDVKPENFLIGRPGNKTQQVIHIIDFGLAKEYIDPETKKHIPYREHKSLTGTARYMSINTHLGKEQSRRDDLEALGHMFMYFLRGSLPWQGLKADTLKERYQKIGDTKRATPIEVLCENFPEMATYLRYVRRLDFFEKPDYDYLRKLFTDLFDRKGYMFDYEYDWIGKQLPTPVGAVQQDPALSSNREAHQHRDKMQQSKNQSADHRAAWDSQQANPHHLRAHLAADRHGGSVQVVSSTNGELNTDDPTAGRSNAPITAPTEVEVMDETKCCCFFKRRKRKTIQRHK
Text: as §1

[4] = tested on: BAR reporter (β-catenin-dependent WNT signaling); experiment: BAR luciferase transcriptional reporter assay in HEK293T B/R cells; type: cell-based, human; settings: HEK293T B/R cells transfected 14 h, 0.1, 1.0 or 10 μM FP1 for 18 h
Description: All luciferase reporter assays were performed as previously described ([15], [43]). […] In both loss-of-function and gain-of-function experiments, treatments (WNT3A CM or drug) were added 18 h before harvesting cells. Conditions were plated in triplicate, and Renilla normalized values were averaged across triplicates to yield the data presented and standard error. Each assay was repeated in biological triplicate, unless otherwise stated. Firefly luciferase and the Renilla control were detected using the Promega Dual-Luciferase Reporter Assay System per the manufacturer’s protocol (Promega; catalog no.: E1960). Plates were read on the Victor Nivo plate reader (PerkinElmer).

[5] = target: CSNK1A1 (Homo sapiens, UniProt P48729); experiment: scanMAX binding assay, CSNK1A1; settings: Percent of Control; legend and method: 1 μM; read-out: CSNK1A1 PoC @ 1 µM
Sequence of CSNK1A1 (P48729 whole entry): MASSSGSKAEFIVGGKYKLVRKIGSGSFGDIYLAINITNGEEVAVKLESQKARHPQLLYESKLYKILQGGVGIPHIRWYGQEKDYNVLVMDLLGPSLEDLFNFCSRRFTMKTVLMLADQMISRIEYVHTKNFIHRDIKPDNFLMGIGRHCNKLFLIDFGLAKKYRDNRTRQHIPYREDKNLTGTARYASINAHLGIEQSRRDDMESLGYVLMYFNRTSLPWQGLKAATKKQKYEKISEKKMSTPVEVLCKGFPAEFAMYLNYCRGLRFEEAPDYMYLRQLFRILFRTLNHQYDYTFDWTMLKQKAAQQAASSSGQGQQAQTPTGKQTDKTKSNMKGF
Text: as §1

[6] = target: T4, CK1γ2 (Homo sapiens, UniProt P78368); experiment: scanMAX binding assay, CK1γ2; settings: Percent of Control; legend and method: 1 μM; read-out: CK1γ2 PoC @ 1 µM
T4 construct: purchased Eurofins
T4 sequence (P78368 whole entry): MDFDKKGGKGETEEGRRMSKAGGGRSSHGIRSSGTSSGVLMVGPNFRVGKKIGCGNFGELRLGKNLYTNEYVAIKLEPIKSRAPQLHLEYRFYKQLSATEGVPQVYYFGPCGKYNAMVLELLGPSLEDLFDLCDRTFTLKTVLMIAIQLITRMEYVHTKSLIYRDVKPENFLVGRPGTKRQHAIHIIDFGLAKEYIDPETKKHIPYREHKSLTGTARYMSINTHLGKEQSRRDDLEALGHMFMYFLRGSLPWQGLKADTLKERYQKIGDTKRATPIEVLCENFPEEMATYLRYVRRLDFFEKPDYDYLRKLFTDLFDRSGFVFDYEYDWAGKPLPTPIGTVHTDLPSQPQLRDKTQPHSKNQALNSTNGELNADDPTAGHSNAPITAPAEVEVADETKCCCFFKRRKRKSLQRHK
Text: as §1

[7] = target: T4, CK1γ2; experiment: Eurofins kinase enzymatic radiometric assay, CK1γ2; type: biochemical; settings: Km = ATP, 9-pt curve in duplicate
Text: as §2

[8] = target: CSNK1A1L (Homo sapiens, UniProt Q8N752); experiment: scanMAX binding assay, CSNK1A1L; settings: Percent of Control; legend and method: 1 μM; read-out: CSNK1A1L PoC @ 1 µM
Sequence of CSNK1A1L (Q8N752 whole entry): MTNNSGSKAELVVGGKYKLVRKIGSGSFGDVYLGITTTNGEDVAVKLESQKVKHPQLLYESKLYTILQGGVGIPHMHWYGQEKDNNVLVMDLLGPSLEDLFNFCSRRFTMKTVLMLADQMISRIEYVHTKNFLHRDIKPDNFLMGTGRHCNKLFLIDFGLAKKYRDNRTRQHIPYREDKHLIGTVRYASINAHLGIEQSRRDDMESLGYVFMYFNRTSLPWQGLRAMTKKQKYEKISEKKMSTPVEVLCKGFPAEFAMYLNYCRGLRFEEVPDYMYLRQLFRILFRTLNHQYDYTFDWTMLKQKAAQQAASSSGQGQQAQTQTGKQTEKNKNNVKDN
Text: as §1

[9] = target: T5, CIT (Homo sapiens, UniProt O14578); experiment: scanMAX binding assay, CIT; settings: Percent of Control; legend and method: 1 μM; read-out: CIT PoC @ 1 µM
T5 construct: purchased Eurofins DiscoverX Corporation
T5 sequence (O14578 whole entry): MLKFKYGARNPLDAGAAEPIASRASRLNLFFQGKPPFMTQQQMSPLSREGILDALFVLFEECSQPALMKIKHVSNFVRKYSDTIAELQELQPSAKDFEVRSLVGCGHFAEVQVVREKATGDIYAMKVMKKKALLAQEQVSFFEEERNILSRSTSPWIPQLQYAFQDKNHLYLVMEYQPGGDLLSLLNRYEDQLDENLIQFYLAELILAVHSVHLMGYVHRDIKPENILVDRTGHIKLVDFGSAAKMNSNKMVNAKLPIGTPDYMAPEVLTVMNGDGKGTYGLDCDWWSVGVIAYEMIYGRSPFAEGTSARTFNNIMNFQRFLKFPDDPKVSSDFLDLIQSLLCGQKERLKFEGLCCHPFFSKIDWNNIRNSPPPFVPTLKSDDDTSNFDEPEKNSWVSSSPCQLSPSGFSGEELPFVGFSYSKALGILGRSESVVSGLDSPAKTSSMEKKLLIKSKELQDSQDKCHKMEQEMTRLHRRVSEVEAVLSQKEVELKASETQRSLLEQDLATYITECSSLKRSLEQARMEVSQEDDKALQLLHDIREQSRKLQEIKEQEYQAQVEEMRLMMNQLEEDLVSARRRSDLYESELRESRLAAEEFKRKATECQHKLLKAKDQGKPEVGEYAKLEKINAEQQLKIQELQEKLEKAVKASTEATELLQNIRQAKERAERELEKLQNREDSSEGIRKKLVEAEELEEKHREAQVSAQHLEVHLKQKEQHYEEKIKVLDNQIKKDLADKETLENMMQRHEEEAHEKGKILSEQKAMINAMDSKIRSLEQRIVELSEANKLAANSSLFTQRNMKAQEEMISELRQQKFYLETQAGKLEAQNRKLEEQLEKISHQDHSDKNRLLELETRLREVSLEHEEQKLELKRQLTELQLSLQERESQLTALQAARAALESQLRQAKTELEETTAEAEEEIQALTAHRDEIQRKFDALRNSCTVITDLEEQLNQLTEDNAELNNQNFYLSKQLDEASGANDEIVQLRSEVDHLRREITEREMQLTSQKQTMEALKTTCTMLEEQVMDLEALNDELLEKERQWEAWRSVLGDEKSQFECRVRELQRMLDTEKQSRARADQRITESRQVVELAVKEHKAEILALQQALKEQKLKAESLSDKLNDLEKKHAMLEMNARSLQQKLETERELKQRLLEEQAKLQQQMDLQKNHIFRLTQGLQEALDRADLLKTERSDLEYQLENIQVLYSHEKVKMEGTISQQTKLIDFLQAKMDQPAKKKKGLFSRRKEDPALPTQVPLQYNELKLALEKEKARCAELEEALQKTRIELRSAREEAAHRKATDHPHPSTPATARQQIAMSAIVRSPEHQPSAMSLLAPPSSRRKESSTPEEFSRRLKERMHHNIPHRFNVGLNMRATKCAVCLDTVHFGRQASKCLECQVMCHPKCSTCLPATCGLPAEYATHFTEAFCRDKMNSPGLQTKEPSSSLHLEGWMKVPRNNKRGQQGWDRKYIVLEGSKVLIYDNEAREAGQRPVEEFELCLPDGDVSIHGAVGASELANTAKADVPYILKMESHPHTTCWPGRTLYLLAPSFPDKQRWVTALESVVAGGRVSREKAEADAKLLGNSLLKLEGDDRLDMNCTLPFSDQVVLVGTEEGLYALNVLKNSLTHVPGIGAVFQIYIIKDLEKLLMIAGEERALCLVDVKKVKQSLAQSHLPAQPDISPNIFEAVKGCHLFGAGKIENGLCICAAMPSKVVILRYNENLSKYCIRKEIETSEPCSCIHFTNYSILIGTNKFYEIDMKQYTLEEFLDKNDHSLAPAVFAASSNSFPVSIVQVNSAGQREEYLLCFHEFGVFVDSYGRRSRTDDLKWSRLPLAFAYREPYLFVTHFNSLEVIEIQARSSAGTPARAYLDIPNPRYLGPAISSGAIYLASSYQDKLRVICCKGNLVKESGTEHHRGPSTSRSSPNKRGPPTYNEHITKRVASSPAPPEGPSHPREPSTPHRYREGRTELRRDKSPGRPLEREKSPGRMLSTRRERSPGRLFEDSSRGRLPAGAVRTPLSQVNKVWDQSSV
Text: as §1

[10] = target: CSNK1D (Homo sapiens, UniProt P48730); experiment: scanMAX binding assay, CSNK1D; settings: Percent of Control; legend and method: 1 μM; read-out: CSNK1D PoC @ 1 µM
Sequence of CSNK1D (P48730 whole entry): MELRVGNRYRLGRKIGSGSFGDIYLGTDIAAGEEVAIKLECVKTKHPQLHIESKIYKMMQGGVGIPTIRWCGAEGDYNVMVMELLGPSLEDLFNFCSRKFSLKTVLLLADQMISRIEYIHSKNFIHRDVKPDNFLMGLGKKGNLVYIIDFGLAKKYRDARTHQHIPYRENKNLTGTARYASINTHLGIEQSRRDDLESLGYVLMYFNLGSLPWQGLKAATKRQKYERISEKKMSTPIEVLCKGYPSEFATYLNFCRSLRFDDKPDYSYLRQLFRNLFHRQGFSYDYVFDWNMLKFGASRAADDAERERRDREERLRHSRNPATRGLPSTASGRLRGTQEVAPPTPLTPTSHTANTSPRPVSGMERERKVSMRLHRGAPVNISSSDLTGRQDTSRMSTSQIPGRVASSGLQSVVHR
Text: as §1

remaining binding at 1 µM [1]: 7.1%
pIC50 [2]: > 7.82 and 8.28
remaining binding at 1 µM [3]: 0.9%
remaining binding at 1 µM [5]: 3.1%
remaining binding at 1 µM [6]: 4.3%
pIC50 [7]: > 7.82 and 8.65
remaining binding at 1 µM [8]: 5.9%
remaining binding at 1 µM [9]: 0.6%
remaining binding at 1 µM [10]: 0%
Compound: COc1cnc(COc2ccc(F)c(F)c2)cc1-c1cc2c([nH]1)CCNC2=O [FP1-24-2, 2-(2-((3,4-difluorophenoxy)methyl)-5-methoxypyridin-4-yl)-1,5,6,7-tetrahydro-4H-pyrrolo[3,2-c]pyridin-4-one]
BAR activity with CK1γ3 overexpression [4]: decrease
